Experimental data as given in PubChem BioAssay AID328 (DTP/NCI, 2004).
Values joined by “and” are separate entries in the source; they are usually repeats but may differ in a detail not shown here. Identical values can stand only once. Toxic doses and inconclusive results are not listed. Residues, ends and D or L forms follow the SMILES beside them.

System: BDF1 mice, P388 leukemia ip, median survival T/C
Test: NCI In Vivo Anticancer Drug Screen. Data for tumor model P388 Leukemia (intraperitoneal) in B6D2F1 (BDF1) mice
Details: endpoint: median survival time, higher = longer survival
Outline: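 Mice carrying the transplantable tumour receive compound or vehicle. Survival is followed in each arm, and the treated measure is divided by the vehicle measure.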

[1] = dose: 50.0 mg/kg/injection, schedule: Q04DX003 (ip), vehicle: saline with Tween-80
[2] = dose: 100.0 mg/kg/injection, schedule: Q04DX003 (ip), vehicle: saline with Tween-80
[3] = dose: 200.0 mg/kg/injection, schedule: Q04DX003 (ip), vehicle: saline with Tween-80
[4] = dose: 400.0 mg/kg/injection, schedule: Q04DX003 (ip), vehicle: saline with Tween-80
[5] = dose: 50.0 mg/kg/injection, schedule: Q01DX009 (ip), vehicle: saline with Tween-80
[6] = dose: 100.0 mg/kg/injection, schedule: Q01DX009 (ip), vehicle: saline with Tween-80
[7] = dose: 200.0 mg/kg/injection, schedule: Q01DX009 (ip), vehicle: saline with Tween-80
[8] = dose: 50.0 mg/kg/injection, schedule: Q04DX003 (ip), vehicle: Klucel (hydroxypropylcellulose) (HPC)
[9] = dose: 100.0 mg/kg/injection, schedule: Q04DX003 (ip), vehicle: Klucel (hydroxypropylcellulose) (HPC)
[10] = dose: 200.0 mg/kg/injection, schedule: Q04DX003 (ip), vehicle: Klucel (hydroxypropylcellulose) (HPC)
[11] = dose: 25.0 mg/kg/injection, schedule: Q04DX003 (ip), vehicle: saline
[12] = dose: 50.0 mg/kg/injection, schedule: Q04DX003 (ip), vehicle: saline
[13] = dose: 12.5 mg/kg/injection, schedule: Q01DX009 (ip), vehicle: saline with Tween-80
[14] = dose: 12.5 mg/kg/injection, schedule: Q04DX003 (ip), vehicle: saline with Tween-80
[15] = dose: 25.0 mg/kg/injection, schedule: Q01DX009 (ip), vehicle: saline with Tween-80
[16] = dose: 25.0 mg/kg/injection, schedule: Q04DX003 (ip), vehicle: saline with Tween-80
[17] = dose: 12.5 mg/kg/injection, schedule: Q01DX009 (ip), vehicle: saline
[18] = dose: 12.5 mg/kg/injection, schedule: Q04DX003 (ip), vehicle: saline
[19] = dose: 25.0 mg/kg/injection, schedule: Q01DX009 (ip), vehicle: saline

Compound: CC(C)C(OCc1ccccc1)C(=O)O (stereo not drawn)
- T/C [1]: 100 % of control
- T/C [2]: 108 % of control
- T/C [3]: 108 % of control
- T/C [4]: 108 % of control

Compound: COC(=O)c1ccc(=O)c2nc3/c(=C/O)c(O)cc(=O)c3[nH]c12
- T/C (dose: 12.5 micrograms/kg/injection, schedule: Q01DX009 (ip), vehicle: Klucel (hydroxypropylcellulose) (HPC)): 101 % of control
- T/C (dose: 25.0 micrograms/kg/injection, schedule: Q01DX009 (ip), vehicle: Klucel (hydroxypropylcellulose) (HPC)): 97 % of control
- T/C (dose: 50.0 micrograms/kg/injection, schedule: Q01DX009 (ip), vehicle: Klucel (hydroxypropylcellulose) (HPC)): 97 % of control
- T/C (dose: 99.0 micrograms/kg/injection, schedule: Q01DX009 (ip), vehicle: saline): 100 % of control
- T/C (dose: 150.0 micrograms/kg/injection, schedule: Q01DX009 (ip), vehicle: saline): 109 % of control
- T/C (dose: 225.0 micrograms/kg/injection, schedule: Q01DX009 (ip), vehicle: saline): 113 % of control

Compound: Nc1nc(N)c2c(n1)CCC(S(=O)(=O)c1ccc3ccccc3c1)C2 (stereo not drawn)
- T/C [5]: 103 % of control and 114 % of control
- T/C [6]: 122 % of control and 124 % of control
- T/C [7]: 123 % of control

Compound: CC[Se](CC)CC.CC[Se](CC)CC.C[CH2][Ge]([CH2]C)[O][Ge]([CH2]C)[CH2]C
- T/C [6]: 107 % of control

Compound: N=N/C(=C\c1c(O)[nH]c2ccccc12)c1ccccc1
- T/C [8]: 100 % of control
- T/C [9]: 108 % of control
- T/C [10]: 108 % of control
- T/C (dose: 400.0 mg/kg/injection, schedule: Q04DX003 (ip), vehicle: Klucel (hydroxypropylcellulose) (HPC)): 90 % of control

Compound: CCNC1=C(N2CC2)C(=O)C(NCC)=C(N2CC2)C1=O
- T/C (dose: 0.37 mg/kg/injection, schedule: Q01DX009 (ip), vehicle: saline): 156 % of control and 175 % of control
- T/C (dose: 0.75 mg/kg/injection, schedule: Q01DX009 (ip), vehicle: saline): 193 % of control and 203 % of control
- T/C (dose: 1.5 mg/kg/injection, schedule: Q01DX009 (ip), vehicle: saline): 228 % of control and 178 % of control

Compound: CCOC(=O)C(CCCCC(NC(C)=O)(C(=O)OCC)C(=O)OCC)(NC(C)=O)C(=O)OCC
- T/C [6]: 95 % of control
- T/C [7]: 100 % of control
- T/C (dose: 400.0 mg/kg/injection, schedule: Q01DX009 (ip), vehicle: saline with Tween-80): 104 % of control

Compound: CSc1nccc(=O)n1-c1cccc(C(F)(F)F)c1
- T/C [9]: 107 % of control
- T/C [10]: 107 % of control

Compound: O=[N+]([O-])c1ccc(N/N=C/C(Br)(Br)Br)c([N+](=O)[O-])c1
- T/C [5]: 111 % of control
- T/C [6]: 104 % of control
- T/C [7]: 103 % of control

Compound: C1CC[N-]CC1.C1CC[N-]CC1.O=C(CC(=O)C(F)(F)F)C(F)(F)F.O=C(CC(=O)C(F)(F)F)C(F)(F)F.[Ni+2]
- T/C [11]: 104 % of control
- T/C [12]: 108 % of control
- T/C (dose: 100.0 mg/kg/injection, schedule: Q04DX003 (ip), vehicle: saline): 104 % of control

Compound: CC(N)C(=O)NC(C)C(=O)NC(C)C(=O)NC(C)C(=O)O (stereo not drawn) (H-AAAA-OH; configuration not given here)
- T/C (dose: 50.0 mg/kg/injection, schedule: Q01DX005 (ip), vehicle: saline): 93 % of control
- T/C (dose: 100.0 mg/kg/injection, schedule: Q01DX005 (ip), vehicle: saline): 98 % of control
- T/C (dose: 200.0 mg/kg/injection, schedule: Q01DX005 (ip), vehicle: saline): 105 % of control

Compound: O=NO.O=N[O-].O=N[O-].[Co+3].[NH-]CC[N-]CCO.[NH-]CC[N-]CCO
- T/C (dose: 25.0 mg/kg/injection, schedule: Q01DX009 (ip), vehicle: water): 104 % of control
- T/C (dose: 25.0 mg/kg/injection, schedule: Q04DX003 (ip), vehicle: water): 100 % of control
- T/C (dose: 50.0 mg/kg/injection, schedule: Q01DX009 (ip), vehicle: water): 98 % of control
- T/C (dose: 50.0 mg/kg/injection, schedule: Q04DX003 (ip), vehicle: water): 109 % of control
- T/C (dose: 100.0 mg/kg/injection, schedule: Q04DX003 (ip), vehicle: water): 104 % of control

Compound: OC(Cc1ccc2ccccc2n1)C(Cl)(Cl)Cl (stereo not drawn)
- T/C (dose: 3.12 mg/kg/injection, schedule: Q01DX009 (ip), vehicle: saline with Tween-80): 95 % of control
- T/C (dose: 6.25 mg/kg/injection, schedule: Q01DX009 (ip), vehicle: saline with Tween-80): 100 % of control
- T/C [13]: 100 % of control
- T/C [14]: 100 % of control
- T/C [15]: 92 % of control
- T/C [16]: 105 % of control
- T/C [5]: 90 % of control
- T/C [1]: 100 % of control
- T/C [2]: 91 % of control

Compound: c1ccc(C[n+]2ccc3ccccc3c2)cc1
- T/C (dose: 6.25 mg/kg/injection, schedule: Q01DX009 (ip), vehicle: saline): 100 % of control
- T/C [17]: 90 % of control
- T/C [18]: 95 % of control
- T/C [19]: 118 % of control
- T/C [11]: 100 % of control

Compound: CN1C(=O)Nc2ccc(Cl)cc2C1(O)c1ccccc1 (stereo not drawn)
- T/C [6]: 89 % of control

Compound: [CH3][Ga][CH3].[CH3][Ga][CH3].[CH3][Ga][CH3].[CH3][Ga][CH3].[OH3+].[OH3+].[OH3+].[OH3+]
- T/C (dose: 2.5 mg/kg/injection, schedule: Q01DX009 (ip), vehicle: saline with Tween-80): 90 % of control

Compound: C[N+](C)(C)c1ccc(/C=N\NC(=O)c2ccccc2)cc1
- T/C (dose: 12.5 mg/kg/injection, schedule: Q01DX009 (ip), vehicle: Klucel (hydroxypropylcellulose) (HPC)): 105 % of control
- T/C (dose: 12.5 mg/kg/injection, schedule: Q04DX003 (ip), vehicle: Klucel (hydroxypropylcellulose) (HPC)): 100 % of control
- T/C (dose: 25.0 mg/kg/injection, schedule: Q01DX009 (ip), vehicle: Klucel (hydroxypropylcellulose) (HPC)): 105 % of control
- T/C (dose: 25.0 mg/kg/injection, schedule: Q04DX003 (ip), vehicle: Klucel (hydroxypropylcellulose) (HPC)): 100 % of control
- T/C (dose: 50.0 mg/kg/injection, schedule: Q01DX009 (ip), vehicle: Klucel (hydroxypropylcellulose) (HPC)): 105 % of control
- T/C [8]: 95 % of control

Compound: O=C(O)C(Br)C(Br)c1ccccc1 (stereo not drawn)
- T/C [2]: 100 % of control
- T/C [3]: 100 % of control
- T/C [4]: 109 % of control

Compound: CC(C)N(C)Cc1ccccc1Sc1ccccc1CN(C)C(C)C
- T/C (dose: 100.0 mg/kg/injection, schedule: Q01DX001 (ip), vehicle: other): 108 % of control
- T/C (dose: 200.0 mg/kg/injection, schedule: Q01DX001 (ip), vehicle: other): 107 % of control
- T/C (dose: 400.0 mg/kg/injection, schedule: Q01DX001 (ip), vehicle: other): 97 % of control

Compound: CCCCC(=O)N(c1ccc(Nc2c3ccccc3nc3cc([N+](=O)[O-])ccc23)cc1)S(C)(=O)=O
- T/C (dose: 0.44 mg/kg/injection, schedule: Q01DX009 (ip), vehicle: saline with Tween-80): 167 % of control
- T/C (dose: 0.66 mg/kg/injection, schedule: Q01DX009 (ip), vehicle: saline with Tween-80): 180 % of control
- T/C (dose: 1.0 mg/kg/injection, schedule: Q01DX009 (ip), vehicle: saline with Tween-80): 194 % of control
- T/C (dose: 1.5 mg/kg/injection, schedule: Q01DX009 (ip), vehicle: saline with Tween-80): 205 % of control
- T/C (dose: 2.2 mg/kg/injection, schedule: Q04DX003 (ip), vehicle: saline with Tween-80): 154 % of control
- T/C (dose: 3.3 mg/kg/injection, schedule: Q04DX003 (ip), vehicle: saline with Tween-80): 150 % of control
- T/C (dose: 5.0 mg/kg/injection, schedule: Q04DX003 (ip), vehicle: saline with Tween-80): 186 % of control
- T/C [14]: 218 % of control
- T/C (dose: 22.0 mg/kg/injection, schedule: Q04DX003 (ip), vehicle: saline with Tween-80): 250 % of control
- T/C [16]: 245 % of control
- T/C (dose: 33.0 mg/kg/injection, schedule: Q04DX003 (ip), vehicle: saline with Tween-80): 175 % of control and 209 % of control
- T/C [1]: 225 % of control and 272 % of control and 181 % of control
- T/C (dose: 75.0 mg/kg/injection, schedule: Q04DX003 (ip), vehicle: saline with Tween-80): 109 % of control and 204 % of control

Compound: O=c1ccc2cc(Cl)ccc2[nH]1
- T/C (dose: 50.0 mg/kg/injection, schedule: Q01DX001 (ip), vehicle: saline with Tween-80): 105 % of control
- T/C (dose: 100.0 mg/kg/injection, schedule: Q01DX001 (ip), vehicle: saline with Tween-80): 103 % of control

Compound: C=CCC#N
- T/C [17]: 95 % of control
- T/C [19]: 95 % of control
- T/C [11]: 100 % of control
- T/C [12]: 95 % of control

Compound: CCCCOP(=O)(CCCC)OCCCC
- T/C [13]: 109 % of control
- T/C [18]: 100 % of control
- T/C [15]: 104 % of control
- T/C [11]: 104 % of control
- T/C [5]: 109 % of control
- T/C [12]: 104 % of control
